# Data published in ChEMBL document CHEMBL1201862, “PubChem BioAssay data set” (2004).
# “And” between values parts separate entries of the source, which are not always exact repeats. Equal values may be shown once.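 Results reflect a 48-hour exposure of cells in 96-well plates to compound at five concentrations. Here, GI50 denotes the concentration required for 50% inhibition of growth.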 The source made the active and inactive calls. Cut-off read from the data, not from the text of the source: active = GI50 up to about 1.1 µM and inactive = higher.
# Columns and labels:
# Assay in all cases: DTP human tumour cell line panel, 48 h
# RPMI-8226 = test system: RPMI-8226
# M19-MEL = test system: M19-MEL
# NCI-H522 = test system: NCI-H522
# Malme-3M = test system: Malme-3M
# HT-29 = test system: HT-29
# K562 = test system: K562
# SN12C = test system: SN12C
# DMS-273 = test system: DMS-273
# LOX IMVI = test system: LOX IMVI
# HCT-15 = test system: HCT-15
# SF-268 = test system: SF-268
# SF-539 = test system: SF-539
# NCI-H23 = test system: NCI-H23
# A549 = test system: A549
# LXFL 529 = test system: LXFL 529
# SR = test system: SR
# SNB-75 = test system: SNB-75
# NCI-H226 = test system: NCI-H226
# DLD-1 = test system: DLD-1
# ACHN = test system: ACHN
# SNB-19 = test system: SNB-19
# SW-620 = test system: SW-620
# UACC-62 = test system: UACC-62
# IGROV-1 = test system: IGROV-1
# RXF 393 = test system: RXF 393
# OVCAR-8 = test system: OVCAR-8
# CAKI-1 = test system: CAKI-1
# SK-MEL-28 = test system: SK-MEL-28
# MDA-N = test system: MDA-N
# NCI-H460 = test system: NCI-H460
# MDA-MB-435 = test system: MDA-MB-435
# SK-MEL-2 = test system: SK-MEL-2
# Hs-578T = test system: Hs-578T
# PC-3 = test system: PC-3
# BT-549 = test system: BT-549
# HL-60 = test system: HL-60
# UACC-257 = test system: UACC-257
# HCC 2998 = test system: HCC 2998
# HOP-92 = test system: HOP-92
# SK-MEL-5 = test system: SK-MEL-5
# TK-10 = test system: TK-10
# KM12 = test system: KM12
# CCRF-CEM = test system: CCRF-CEM
# OVCAR-3 = test system: OVCAR-3
# T47D = test system: T47D
# SK-OV-3 = test system: SK-OV-3
# DU-145 = test system: DU-145
# SF-295 = test system: SF-295
# OVCAR-5 = test system: OVCAR-5
# HCT-116 = test system: HCT-116
# MOLT-4 = test system: MOLT-4
# A498 = test system: A498
# COLO 205 = test system: COLO 205
# UO-31 = test system: UO-31
# EKVX = test system: EKVX
# MDA-MB-231 = test system: MDA-MB-231
# U-251 = test system: U-251
# HOP-62 = test system: HOP-62
# OVCAR-4 = test system: OVCAR-4
# NCI/ADR-RES = test system: NCI/ADR-RES
# MCF7 = test system: MCF7
# M14 = test system: M14
# 786-0 = test system: 786-0
compound,measurement,setting,value
COc1ccc(C(c2ccccc2)C(C)C(=O)c2c(C)cc(C)cc2C)cc1 (configuration not stated),GI50,RPMI-8226,69.8 µM (inactive) and 79.8 µM (inactive)
same,GI50,M19-MEL,42.5 µM (inactive) and 59 µM (inactive)
same,GI50,NCI-H522,37.8 µM (inactive) and 53.5 µM (inactive)
same,GI50,Malme-3M,57.7 µM (inactive)
same,GI50,HT-29,47.4 µM (inactive) and 56 µM (inactive)
same,GI50,K562,94.2 µM (inactive) and 53.7 µM (inactive)
c1ccncc1,GI50,SN12C,> 100 µM (inactive)
same,GI50,DMS-273,> 100 µM (inactive)
same,GI50,LOX IMVI,> 100 µM (inactive)
same,GI50,HCT-15,> 100 µM
same,GI50,SF-268,> 100 µM (inactive)
same,GI50,SF-539,> 100 µM (inactive)
same,GI50,Malme-3M,> 100 µM (inactive)
same,GI50,NCI-H23,> 100 µM (inactive)
same,GI50,A549,> 100 µM (inactive)
same,GI50,LXFL 529,> 100 µM (inactive)
same,GI50,SR,> 100 µM (inactive)
same,GI50,SNB-75,85.5 µM (inactive)
same,GI50,NCI-H226,> 100 µM (inactive)
same,GI50,DLD-1,> 100 µM (inactive)
same,GI50,ACHN,> 100 µM (inactive)
O=[N+]([O-])/C(C(Cl)=C(Cl)Cl)=C(/Br)SCc1ccccc1,GI50,RPMI-8226,656 nM (active)
same,GI50,SNB-19,10.4 µM (inactive)
same,GI50,SW-620,1.63 µM (inactive)
same,GI50,UACC-62,3.42 µM (inactive)
same,GI50,IGROV-1,3.71 µM (inactive)
same,GI50,RXF 393,1.79 µM (inactive)
same,GI50,SN12C,2.27 µM (inactive)
same,GI50,OVCAR-8,2.61 µM (inactive)
same,GI50,CAKI-1,2 µM (inactive)
same,GI50,SK-MEL-28,1.89 µM (inactive)
same,GI50,LOX IMVI,1.56 µM (inactive)
same,GI50,MDA-N,1.87 µM (inactive)
same,GI50,NCI-H460,7.13 µM (inactive)
same,GI50,HCT-15,2.07 µM
same,GI50,NCI-H522,1.71 µM (inactive)
same,GI50,MDA-MB-435,1.47 µM (inactive)
same,GI50,SK-MEL-2,4.42 µM (inactive)
same,GI50,Hs-578T,11.7 µM (inactive)
same,GI50,PC-3,2.79 µM (inactive)
same,GI50,BT-549,2 µM (inactive)
same,GI50,HL-60,0.222 µM (active)
same,GI50,UACC-257,3.18 µM (inactive)
same,GI50,HCC 2998,7.21 µM (inactive)
same,GI50,HOP-92,1.77 µM (inactive)
same,GI50,SF-268,2.52 µM (inactive)
same,GI50,SK-MEL-5,2.96 µM (inactive)
same,GI50,SF-539,7.4 µM (inactive)
same,GI50,TK-10,3.08 µM (inactive)
same,GI50,Malme-3M,2.88 µM (inactive)
same,GI50,KM12,13.4 µM (inactive)
same,GI50,NCI-H23,3.22 µM (inactive)
same,GI50,CCRF-CEM,0.277 µM (active)
same,GI50,OVCAR-3,1.86 µM (inactive)
same,GI50,T47D,2.88 µM (inactive)
same,GI50,A549,5.85 µM (inactive)
same,GI50,SK-OV-3,22 µM (inactive)
same,GI50,DU-145,12.9 µM (inactive)
same,GI50,SR,0.375 µM (active)
same,GI50,SNB-75,2.56 µM (inactive)
same,GI50,NCI-H226,6.07 µM (inactive)
same,GI50,SF-295,15.9 µM (inactive)
same,GI50,OVCAR-5,5.71 µM (inactive)
same,GI50,HCT-116,1.73 µM (inactive)
same,GI50,MOLT-4,0.26 µM (active)
same,GI50,A498,7.01 µM (inactive)
same,GI50,COLO 205,1.6 µM (inactive)
same,GI50,HT-29,2.11 µM (inactive)
same,GI50,UO-31,2.45 µM (inactive)
same,GI50,EKVX,5.46 µM (inactive)
same,GI50,MDA-MB-231,2.72 µM (inactive)
same,GI50,U-251,4.48 µM (inactive)
same,GI50,HOP-62,15.5 µM (inactive)
same,GI50,ACHN,2.64 µM (inactive)
same,GI50,OVCAR-4,3.3 µM (inactive)
same,GI50,NCI/ADR-RES,3.29 µM (inactive)
same,GI50,MCF7,2.84 µM (inactive)
same,GI50,K562,467 nM (active)
same,GI50,M14,2.4 µM (inactive)
same,GI50,786-0,2.1 µM (inactive)
N#CCN1CCN(CC#N)CCN(CC#N)CCN(CC#N)CC1,GI50,RPMI-8226,38300 nM (inactive)
same,GI50,SNB-19,> 100 µM (inactive)
same,GI50,SW-620,42 µM (inactive)
same,GI50,UACC-62,80.2 µM (inactive)
same,GI50,IGROV-1,> 100 µM (inactive)
same,GI50,RXF 393,79.6 µM (inactive)
same,GI50,SN12C,> 100 µM (inactive)
same,GI50,OVCAR-8,> 100 µM (inactive)
same,GI50,CAKI-1,> 100 µM (inactive)
same,GI50,SK-MEL-28,> 100 µM (inactive)
same,GI50,LOX IMVI,33.3 µM (inactive)
same,GI50,MDA-N,> 100 µM (inactive)
same,GI50,NCI-H460,53.3 µM (inactive)
same,GI50,NCI-H522,> 100 µM (inactive)
same,GI50,MDA-MB-435,> 100 µM (inactive)
same,GI50,SK-MEL-2,> 100 µM (inactive)
same,GI50,Hs-578T,> 100 µM (inactive)
same,GI50,PC-3,96.4 µM (inactive)
same,GI50,BT-549,> 100 µM (inactive)
same,GI50,HL-60,33.3 µM (inactive)
same,GI50,UACC-257,> 100 µM (inactive)
same,GI50,HCC 2998,43.5 µM (inactive)
same,GI50,HOP-92,> 100 µM (inactive)
same,GI50,SF-268,> 100 µM (inactive)
same,GI50,SK-MEL-5,> 100 µM (inactive)
same,GI50,SF-539,> 100 µM (inactive)
same,GI50,TK-10,> 100 µM (inactive)
same,GI50,Malme-3M,> 100 µM (inactive)
same,GI50,KM12,> 100 µM (inactive)
same,GI50,NCI-H23,> 100 µM (inactive)
same,GI50,CCRF-CEM,67 µM (inactive)
same,GI50,OVCAR-3,> 100 µM (inactive)
same,GI50,T47D,> 100 µM (inactive)
same,GI50,A549,> 100 µM (inactive)
same,GI50,SK-OV-3,46.8 µM (inactive)
same,GI50,DU-145,> 100 µM (inactive)
same,GI50,SR,> 100 µM (inactive)
same,GI50,SNB-75,> 100 µM (inactive)
same,GI50,NCI-H226,> 100 µM (inactive)
same,GI50,SF-295,> 100 µM (inactive)
same,GI50,OVCAR-5,> 100 µM (inactive)
same,GI50,HCT-116,> 100 µM (inactive)
same,GI50,MOLT-4,> 100 µM (inactive)
same,GI50,A498,> 100 µM (inactive)
same,GI50,COLO 205,> 100 µM (inactive)
same,GI50,HT-29,50.5 µM (inactive)
same,GI50,UO-31,> 100 µM (inactive)
same,GI50,MDA-MB-231,> 100 µM (inactive)
same,GI50,U-251,> 100 µM (inactive)
same,GI50,HOP-62,> 100 µM (inactive)
same,GI50,ACHN,> 100 µM (inactive)
same,GI50,OVCAR-4,> 100 µM (inactive)
same,GI50,NCI/ADR-RES,> 100 µM (inactive)
same,GI50,MCF7,43.1 µM (inactive)
same,GI50,K562,> 100000 nM (inactive)
same,GI50,M14,> 100 µM (inactive)
same,GI50,786-0,> 100 µM (inactive)
